Columns and labels:
Format in all cases: cell-based, rat
[1] = tested on: Cdkn1a (p21) and Cdkn2a (p16) expression in EOM-derived myoblasts; experiment: qPCR of senescence markers in EOM-derived myoblasts; conditions: EOM satellite cells in culture, 10 μM, vs DMSO
Procedure: The absence of Cdkn1a and Cdkn2a transcripts is also validated as well as the specific expression of TSHR on muscle satellite cells freshly isolated from EOMs by qRT-PCR (FIG. 6D): The RNA is extracted using the total RNA isolation kit RNAqueous-Micro (Invitrogen) and back-transcribed using SuperScript™ III reverse transcriptase (Invitrogen, 18080093) according to the manufacturer's instructions.
The qPCR is carried out using the StepOnePlus real-time PCR system (Applied Biosystems) and SYBR Green detection tools (Applied Biosystems).
The results are reported as relative gene expression (2-DDCT) using the vehicle-treated cells or the extra-ocular derived myoblasts as a reference. Gene expression is normalized on the expression levels of β-actin.
(§1) For this, the myoblasts derived from MSC were treated with 10 μM of ML224 (HY12381-S, CliniSciences) for 2 days (proliferation) or 7 days (differentiation) or 20 μM of forskolin (F3917, Sigma-Aldrich) (following experiment) only for 48 h. The control cells were treated with DMSO (D8418, Sigma Aldrich) as a vehicle for ML224 and forskolin.

[2] = tested on: myoblasts isolated from the WT EOMs; experiment: EdU proliferation of EOM-derived myoblasts treated with TSHR antagonist; conditions: 10 μM, 2 days, serum-free, EdU pulse 24 h, vs DMSO
Procedure: To evaluate the functional importance of the expression of TSHR in the MSCs of the EOMs, the myoblasts were isolated from the WT EOMs and treated with a selective antagonist of the TSH receptor, ML224 (Neumann et al., 2014).
as §1
The proliferation was measured after 24 h of culture by adding to the culture medium a pulse of […] of 5-ethynyl-20-deoxyuridine (EdU) for 24 h (EdU Click-iT PLUS Kit C10640, Life Technologies).
This experiment is carried out under serum-free conditions in order to prevent any stimulation of TSHR by the presence of TSH in the serum, which explains the lowest proliferative capacity of the myoblasts of the EOMs treated with the vehicle, relative to the data presented above (FIG. 3I).

[3] = tested on: myoblasts isolated from the WT EOMs; experiment: Myogenic differentiation (MF20 staining, fusion index) of EOM myoblasts; conditions: 10 μM, 7 days, vs DMSO
Procedure: For this, the cells were fixed with 4% PFA for 10 minutes at 4° C. and permeabilized with 0.5% Triton in 1×PBS for 6 minutes. After blocking with 10% BSA for 30 minutes at room temperature, the cells were incubated O/N at 4° C. with the following primary antibodies: Pax7 (Santa Cruz Biotechnology, sc-81648), MyoD (Dako, clone 5.8A, M3512), ki67 (Abcam, sp6 ab16667), sarcomeric myosin heavy chain (MF20, DSHB, AB_2147781).
The cell suspension was passed through cell filters and centrifuged at 600 g/minute for 5 minutes, at 4° C. The supernatant was removed and the cell pellet was resuspended in 20% fetal bovine serum (Cat #S1810-500 Dominique Dutscher) in DMEM (Cat #41966-029 Gibco) supplemented by 25 ng/mL of bFGF (RP4037, Sigma-Aldrich) with […] of penicillin/streptomycin (354234, Life Sciences) covered with matrigel (Sarstedt, #94.6140.802). The cells were grown for 48 hours to evaluate the proliferation. After 48 h of proliferation, the cells were cultured for 5 days in 5% fetal bovine serum to induce differentiation.
as §1

## COc1ccc(C2Nc3ccccc3C(=O)N2Cc2ccco2)cc1COc1c(C)cc(NC(C)=O)cc1C (centres unmarked) [ML224]
[1]
  Expression of Cdkn1a (p21): induced the expression
  Expression of Cdkn2a (p16): induced the expression
[2]
  Proliferative myoblasts (Pax7+/MyoD+/EdU+ cells) relative to vehicle: significant decrease
[3]
  Differentiation / formation of myotubes: differentiation defects
  Fusion index compared to vehicle control: significant reduction

Source: US20240343779A1, “PHARMACOLOGICAL AND/OR GENETIC ACTIVATOR FOR USE IN PRESERVING AND REGENERATING MUSCLE STRUCTURE AND FUNCTION BY BLOCKING SENESCENCE” (ASSOCIATION FRANCAISE CONTRE LES MYOPATHIES, priority 2021, published 2024)
